ChEMBL document CHEMBL1201862, “PubChem BioAssay data set” (2004)
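Growth conditions: 96-well plates. Treatment: test compound, 48 hours, 5 concentrations. Analysis: linear interpolation between bracketing concentrations; unreached endpoints set to highest concentration. The concentration for 50% growth inhibition is given as GI50.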 Active and inactive are the calls of the source. Rule as the data show it: active = GI50 up to about 1.1 µM and inactive = higher.

Columns and labels:
Experiment in all cases: NCI-60 cell line screen, 48 h
786-0 = system: 786-0
A498 = system: A498
A549 = system: A549
ACHN = system: ACHN
BT-549 = system: BT-549
CAKI-1 = system: CAKI-1
CCRF-CEM = system: CCRF-CEM
COLO 205 = system: COLO 205
DU-145 = system: DU-145
EKVX = system: EKVX
HCC 2998 = system: HCC 2998
HCT-116 = system: HCT-116
HCT-15 = system: HCT-15
HOP-62 = system: HOP-62
HOP-92 = system: HOP-92
HT-29 = system: HT-29
IGROV-1 = system: IGROV-1
K562 = system: K562
KM12 = system: KM12
LOX IMVI = system: LOX IMVI
M14 = system: M14
MCF7 = system: MCF7
MDA-MB-231 = system: MDA-MB-231
MDA-MB-435 = system: MDA-MB-435
MDA-N = system: MDA-N
MOLT-4 = system: MOLT-4
Malme-3M = system: Malme-3M
NCI-H226 = system: NCI-H226
NCI-H23 = system: NCI-H23
NCI-H460 = system: NCI-H460
NCI-H522 = system: NCI-H522
NCI/ADR-RES = system: NCI/ADR-RES
OVCAR-3 = system: OVCAR-3
OVCAR-4 = system: OVCAR-4
OVCAR-5 = system: OVCAR-5
OVCAR-8 = system: OVCAR-8
PC-3 = system: PC-3
RPMI-8226 = system: RPMI-8226
RXF 393 = system: RXF 393
SF-268 = system: SF-268
SF-295 = system: SF-295
SF-539 = system: SF-539
SK-MEL-28 = system: SK-MEL-28
SK-MEL-2 = system: SK-MEL-2
SK-MEL-5 = system: SK-MEL-5
SK-OV-3 = system: SK-OV-3
SN12C = system: SN12C
SNB-19 = system: SNB-19
SNB-75 = system: SNB-75
SR = system: SR
SW-620 = system: SW-620
T47D = system: T47D
TK-10 = system: TK-10
U-251 = system: U-251
UACC-257 = system: UACC-257
UACC-62 = system: UACC-62
UO-31 = system: UO-31
HL-60 = system: HL-60

In the case of `C=C1CN(Cc2ccccc2)[C@@H]2CCCCC[C@H](C#N)[C@H]12`, the GI50 (786-0) is reported as > 100 µM (inactive), the GI50 (A498) is reported as > 100 µM (inactive) and the GI50 (A549) is reported as 78 µM (inactive). For the same compound, the GI50 (ACHN) was > 100 µM (inactive), the GI50 (BT-549) was > 100 µM (inactive) and the GI50 (CAKI-1) was > 100 µM (inactive). For the same compound, the GI50 (CCRF-CEM) was 24.9 µM (inactive), the GI50 (COLO 205) was > 100 µM (inactive) and the GI50 (DU-145) was > 100 µM (inactive). The GI50 (EKVX) was > 100 µM (inactive), the GI50 (HCC 2998) was > 100 µM (inactive) and the GI50 (HCT-116) was > 72.4 µM (inactive). For the same compound, the GI50 (HCT-15) was over 100 µM, the GI50 (HOP-62) was > 69.2 µM (inactive) and the GI50 (HOP-92) was 36.3 µM (inactive). For the same compound, the GI50 (HT-29) was > 67.5 µM (inactive), the GI50 (IGROV-1) was > 100 µM (inactive) and the GI50 (K562) was 47.2 µM (inactive). The GI50 (KM12) was > 100 µM (inactive), the GI50 (LOX IMVI) was 95.9 µM (inactive) and the GI50 (M14) was > 100 µM (inactive). For the same compound, the GI50 (MCF7) was > 100 µM (inactive), the GI50 (MDA-MB-231) was > 100 µM (inactive) and the GI50 (MDA-MB-435) was > 76 µM (inactive). The GI50 (MDA-N) was > 100 µM (inactive), the GI50 (MOLT-4) was 24.3 µM (inactive) and the GI50 (Malme-3M) was > 100 µM (inactive). The GI50 (NCI-H226) was > 69.3 µM (inactive), the GI50 (NCI-H23) was > 93.1 µM (inactive) and the GI50 (NCI-H460) was > 78.2 µM (inactive). The GI50 (NCI-H522) was 65.8 µM (inactive), the GI50 (NCI/ADR-RES) was > 77.4 µM (inactive) and the GI50 (OVCAR-3) was > 93.1 µM (inactive). For the same compound, the GI50 (OVCAR-4) was > 100 µM (inactive), the GI50 (OVCAR-5) was > 100 µM (inactive) and the GI50 (OVCAR-8) was > 68.4 µM (inactive). The GI50 (PC-3) was > 74.1 µM (inactive), the GI50 (RPMI-8226) was 22.5 µM (inactive) and the GI50 (RXF 393) was > 60.8 µM (inactive). For the same compound, the GI50 (SF-268) was > 100 µM (inactive), the GI50 (SF-295) was > 21.2 µM (inactive) and the GI50 (SF-539) was > 100 µM (inactive). The GI50 (SK-MEL-28) was > 100 µM (inactive), the GI50 (SK-MEL-2) was > 100 µM (inactive) and the GI50 (SK-MEL-5) was > 100 µM (inactive). The GI50 (SK-OV-3) was > 86.9 µM (inactive), the GI50 (SN12C) was > 100 µM (inactive) and the GI50 (SNB-19) was > 100 µM (inactive). The GI50 (SNB-75) was > 100 µM (inactive), the GI50 (SR) was > 47.8 µM (inactive) and the GI50 (SW-620) was > 94.8 µM (inactive). For the same compound, the GI50 (T47D) was > 100 µM (inactive), the GI50 (TK-10) was > 100 µM (inactive) and the GI50 (U-251) was > 94 µM (inactive). For the same compound, the GI50 (UACC-257) was > 100 µM (inactive), the GI50 (UACC-62) was > 100 µM (inactive) and the GI50 (UO-31) was > 63.4 µM (inactive).
`COc1ccc(-c2nc(Nc3ccccc3)sc2Cc2sc(Nc3ccccc3)nc2-c2ccc(OC)cc2)cc1` was tested, and the GI50 (786-0) was 98.9 µM (inactive), the GI50 (A498) was 25.2 µM (inactive) and the GI50 (A549) was > 100 µM (inactive). The GI50 (ACHN) was 45.1 µM (inactive), the GI50 (BT-549) was > 100 µM (inactive) and the GI50 (CAKI-1) was > 100 µM (inactive). The GI50 (CCRF-CEM) was 36.5 µM (inactive), the GI50 (COLO 205) was 7.57 µM (inactive) and the GI50 (DU-145) was > 100 µM (inactive). For the same compound, the GI50 (EKVX) was > 100 µM (inactive), the GI50 (HCC 2998) was > 100 µM (inactive) and the GI50 (HCT-116) was 43.4 µM (inactive). The GI50 (HCT-15) was over 100 µM, the GI50 (HL-60) was 0.787 µM (active) and the GI50 (HOP-62) was > 100 µM (inactive). For the same compound, the GI50 (HT-29) was 70.6 µM (inactive), the GI50 (IGROV-1) was > 100 µM (inactive) and the GI50 (K562) was 5.18 µM (inactive). The GI50 (KM12) was 8.59 µM (inactive), the GI50 (LOX IMVI) was 15.5 µM (inactive) and the GI50 (MCF7) was 8.05 µM (inactive). The GI50 (MDA-MB-231) was > 100 µM (inactive), the GI50 (MDA-MB-435) was 52.4 µM (inactive) and the GI50 (MDA-N) was 46.1 µM (inactive). For the same compound, the GI50 (MOLT-4) was 12.6 µM (inactive), the GI50 (Malme-3M) was > 100 µM (inactive) and the GI50 (NCI-H226) was > 100 µM (inactive). For the same compound, the GI50 (NCI-H23) was 37.7 µM (inactive), the GI50 (NCI-H460) was 51.8 µM (inactive) and the GI50 (NCI/ADR-RES) was > 100 µM (inactive). For the same compound, the GI50 (OVCAR-3) was 17.1 µM (inactive), the GI50 (OVCAR-4) was 24.3 µM (inactive) and the GI50 (OVCAR-5) was > 100 µM (inactive). For the same compound, the GI50 (OVCAR-8) was > 100 µM (inactive), the GI50 (RPMI-8226) was 1.8 µM (inactive) and the GI50 (RXF 393) was 4.35 µM (inactive). For the same compound, the GI50 (SF-268) was > 100 µM (inactive), the GI50 (SF-295) was > 10 µM (inactive) and the GI50 (SF-539) was > 100 µM (inactive). For the same compound, the GI50 (SK-MEL-28) was > 100 µM (inactive), the GI50 (SK-MEL-5) was > 100 µM (inactive) and the GI50 (SK-OV-3) was > 100 µM (inactive). For the same compound, the GI50 (SN12C) was 27 µM (inactive), the GI50 (SNB-19) was > 100 µM (inactive) and the GI50 (SNB-75) was > 100 µM (inactive). The GI50 (SR) was 26 µM (inactive), the GI50 (SW-620) was 67.5 µM (inactive) and the GI50 (T47D) was 38.5 µM (inactive). The GI50 (TK-10) was > 100 µM (inactive), the GI50 (U-251) was > 100 µM (inactive) and the GI50 (UACC-257) was > 100 µM (inactive). The GI50 (UACC-62) was > 100 µM (inactive) and the GI50 (UO-31) was > 100 µM (inactive).
For `N#CCC(=O)c1cc(OCc2cc(OCc3ccc(Br)cc3)cc(OCc3ccc(Br)cc3)c2)cc(OCc2cc(OCc3ccc(Br)cc3)cc(OCc3ccc(Br)cc3)c2)c1`, the GI50 (786-0) was > 100 µM (inactive), the GI50 (A498) was > 100 µM (inactive) and the GI50 (A549) was > 100 µM (inactive). For the same compound, the GI50 (ACHN) was > 100 µM (inactive), the GI50 (BT-549) was > 100 µM (inactive) and the GI50 (CAKI-1) was > 100 µM (inactive). The GI50 (COLO 205) was > 100 µM (inactive), the GI50 (DU-145) was > 100 µM (inactive) and the GI50 (EKVX) was > 100 µM (inactive). For the same compound, the GI50 (HCC 2998) was > 100 µM (inactive), the GI50 (HCT-116) was > 100 µM (inactive) and the GI50 (HCT-15) was over 100 µM. The GI50 (HOP-62) was > 100 µM (inactive), the GI50 (HOP-92) was > 100 µM (inactive) and the GI50 (K562) was 0.264 µM (active). For the same compound, the GI50 (KM12) was > 100 µM (inactive), the GI50 (M14) was > 100 µM (inactive) and the GI50 (MCF7) was > 100 µM (inactive). For the same compound, the GI50 (MDA-MB-231) was > 100 µM (inactive), the GI50 (MDA-MB-435) was > 100 µM (inactive) and the GI50 (MDA-N) was > 100 µM (inactive). For the same compound, the GI50 (Malme-3M) was > 100 µM (inactive), the GI50 (NCI-H226) was > 100 µM (inactive) and the GI50 (NCI-H23) was > 100 µM (inactive). The GI50 (NCI-H460) was > 100 µM (inactive), the GI50 (NCI-H522) was > 100 µM (inactive) and the GI50 (NCI/ADR-RES) was > 100 µM (inactive). For the same compound, the GI50 (OVCAR-3) was > 100 µM (inactive), the GI50 (OVCAR-4) was > 100 µM (inactive) and the GI50 (OVCAR-5) was > 100 µM (inactive). The GI50 (PC-3) was > 100 µM (inactive), the GI50 (RPMI-8226) was > 100 µM (inactive) and the GI50 (SF-268) was > 100 µM (inactive). The GI50 (SF-295) was > 100 µM (inactive), the GI50 (SK-MEL-28) was > 100 µM (inactive) and the GI50 (SK-MEL-2) was > 100 µM (inactive). For the same compound, the GI50 (SK-MEL-5) was > 100 µM (inactive), the GI50 (SK-OV-3) was > 100 µM (inactive) and the GI50 (SN12C) was > 100 µM (inactive). For the same compound, the GI50 (SNB-19) was > 100 µM (inactive), the GI50 (SNB-75) was > 100 µM (inactive) and the GI50 (T47D) was > 100 µM (inactive). The GI50 (TK-10) was > 100 µM (inactive), the GI50 (U-251) was > 100 µM (inactive) and the GI50 (UACC-257) was > 100 µM (inactive). The GI50 (UACC-62) was > 100 µM (inactive) and the GI50 (UO-31) was > 100 µM (inactive).
